Data set [1] deals with Swiss mice CD1. Put plainly: forced swim test, Alverine and fluoxetine administered intraperitoneally to mice (Example 3, second test). In kind it is in vivo. The following applies: for immobility time, individual animals / immobility time, Mean: 30 minutes prior to the test; for immobility time, Mean: n = 10. The method, then: These are Swiss mice CD1 (CD-1® (ICR) IGS (Charles River France) weighing between 25 and 35 g. […] They are placed 15 to 20 per cage, over an acclimatising period of at least 5 days prior to the tests. They are identified by marking on the fur. […] The mice were divided into two test comprising six groups of 10 mice each. For the second test: The first group is the control group: it is treated only by excipient. […] The doses are expressed in terms of free active substances. The test substances are prepared extemporaneously in a saline solution. The treatments are co-administered 30 minutes prior to the test in a coded and random order intraperitoneally with a volume of 10 ml/kg (5 ml/kg for each administration). […] The total duration of immobility is measured over the last four minutes of the test, six minutes in total. A mouse is deemed immobile when it ceases struggling and floats in the water without movements superfluous to those allowing it to keep its head above water. A drop in immobility time is the reflection of an antidepressant effect. The forced swim test is a pre-clinical behavioural model, which has good predictive validity and is widely employed for determining the efficacy of antidepressant medications (Borsini and Meli, 1988). The results are expressed in total duration of immobility in seconds and as a percentage of variation of the total duration of immobility calculated from the average value of the control group. The statistical significance between two treated groups is determined by using a Student test (P<0.05) The data are analysed using <<SigmaStat>> software.

The subject of data set [2] is Swiss mice CD1. Kind of data set: observation of secondary effects in mice treated orally (Example 2). Type of data set: in vivo. The following applies: treated orally, 10, 30, 100 mg/kg.
[3] abbreviates: Alverine 3 mg/kg intraperitoneally.
Setting [4] is: Alverine 10 mg/kg intraperitoneally.

Values joined by “and” are separate entries in the source; they are usually repeats but may differ in a detail not shown here. Equal entries are not always repeated. Structures can show the parent of a compound that is named as a salt.

Take `CCN(CCCc1ccccc1)CCCc1ccccc1` [Alverine citrate, N-ethyl-3,3′-diphenyldipropylamine]: in the data set on Swiss mice CD1 [1] (setting [3]), the “% of variation of immobility time vs control group” value is on record as −37%; the “Dunnett test vs control group” value is given as “* (* indicates a significant difference for p < 0.05 (Dunnett test))”; the “immobility time, individual animals” value is 119 sec and 138 sec and 117 sec (2×) and 110 sec and 73 sec and 47 sec and 124 sec and 72 sec and 32 sec; the “immobility time, Mean” value stood at 94.9 s. For the same compound, in the data set on Swiss mice CD1 [1] (setting [4]), the “% of variation of immobility time vs control group” value is listed as −49%; the “Dunnett test vs control group” value was “* (* indicates a significant difference for p < 0.05 (Dunnett test))”; the “immobility time, individual animals” value was 63 sec and 75 sec (2×) and 77 sec and 46 sec and 6 sec and 113 sec and 89 sec and 104 sec and 125 sec; the “immobility time, Mean” value turned out to be 77.3 s. Besides, the “decrease in the duration of immobilisation as compared to the control group (in words)” value in the data set on Swiss mice CD1 [1] (tested alone at 3 mg/kg intraperitoneally) is “statistically significant decrease”. The secondary effect entry in the data set with Swiss mice CD1 [2] is “no secondary effect was observed”.

These data come from patent US20050065218A1, “Utilization of alverine, alone or in combination with tricyclic antidepressant or a specific serotonin reuptake inhibitor for the treatment of depression” (priority 2003, published 2005).
